Data reported in PubChem BioAssay (NCI).
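Results reflect a 48-hour exposure of cells in 96-well plates to compound at five concentrations. GI50: concentration for 50% inhibition of growth. At the TGI there is no net growth.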

Experiments:
Test in all cases: inhibition of tumour cell growth, NCI panel, 48 h
HS 578T breast = system: HS 578T breast
TK-10 renal = system: TK-10 renal
NCI-H23 lung = system: NCI-H23 lung
NCI-H522 lung = system: NCI-H522 lung
SK-OV-3 ovarian = system: SK-OV-3 ovarian
MDA-MB-435 = system: MDA-MB-435
LOX IMVI melanoma = system: LOX IMVI melanoma
PC-3 prostate = system: PC-3 prostate
CAKI-1 renal = system: CAKI-1 renal
MOLT-4 leukemia = system: MOLT-4 leukemia
SN12C renal = system: SN12C renal
HL-60(TB) leukemia = system: HL-60(TB) leukemia
MCF7 breast = system: MCF7 breast
T-47D breast = system: T-47D breast
SR leukemia = system: SR leukemia
HOP-92 NSCLC = system: HOP-92 NSCLC
OVCAR-5 ovarian = system: OVCAR-5 ovarian
OVCAR-3 ovarian = system: OVCAR-3 ovarian
A498 renal = system: A498 renal
UACC-257 melanoma = system: UACC-257 melanoma
NCI/ADR-RES ovarian = system: NCI/ADR-RES ovarian
BT-549 breast = system: BT-549 breast
MDA-MB-231 breast = system: MDA-MB-231 breast
U251 CNS = system: U251 CNS
NCI-H460 lung = system: NCI-H460 lung
SW-620 colon = system: SW-620 colon
OVCAR-4 ovarian = system: OVCAR-4 ovarian
HCT-116 colon = system: HCT-116 colon
NCI-H226 lung = system: NCI-H226 lung

What does the source list for `COc1ccc(/C=N/Nc2nc(N)nc(N3CCCC3)c2C#N)cc1`?
GI50 (HS 578T breast): 13 µM; TGI (HS 578T breast): 34 µM; GI50 (TK-10 renal): 19.4 µM; TGI (TK-10 renal): 39.9 µM; GI50 (NCI-H23 lung): 20.5 µM; TGI (NCI-H23 lung): 48.1 µM; GI50 (NCI-H522 lung): 21.9 µM; TGI (NCI-H522 lung): 47.7 µM; GI50 (SK-OV-3 ovarian): 27.1 µM; TGI (SK-OV-3 ovarian): 73.3 µM; GI50 (MDA-MB-435): 24.1 µM; TGI (MDA-MB-435): 64.6 µM; GI50 (LOX IMVI melanoma): 7.39 µM; TGI (LOX IMVI melanoma): > 100 µM; GI50 (PC-3 prostate): 14.7 µM; TGI (PC-3 prostate): 32.2 µM; GI50 (CAKI-1 renal): 20.9 µM; TGI (CAKI-1 renal): 40.3 µM; GI50 (MOLT-4 leukemia): 17.8 µM; TGI (MOLT-4 leukemia): 58.9 µM; GI50 (SN12C renal): 18.6 µM; TGI (SN12C renal): 35.8 µM; GI50 (HL-60(TB) leukemia): 28.2 µM; TGI (HL-60(TB) leukemia): 86.6 µM; GI50 (MCF7 breast): 15.3 µM; TGI (MCF7 breast): 47.8 µM; GI50 (T-47D breast): 31.2 µM; TGI (T-47D breast): 89.4 µM; GI50 (SR leukemia): 7.72 µM; TGI (SR leukemia): 27.5 µM; GI50 (HOP-92 NSCLC): 17.8 µM; TGI (HOP-92 NSCLC): 36.4 µM; GI50 (OVCAR-5 ovarian): 24.3 µM; TGI (OVCAR-5 ovarian): 47 µM; GI50 (OVCAR-3 ovarian): 21.5 µM; TGI (OVCAR-3 ovarian): 40.2 µM; GI50 (A498 renal): 12.9 µM; TGI (A498 renal): 28.1 µM; GI50 (UACC-257 melanoma): 21.6 µM; TGI (UACC-257 melanoma): 44.7 µM; GI50 (NCI/ADR-RES ovarian): 14.1 µM; TGI (NCI/ADR-RES ovarian): 40.2 µM; GI50 (BT-549 breast): 19.1 µM; TGI (BT-549 breast): 46.3 µM; GI50 (MDA-MB-231 breast): 12.2 µM; TGI (MDA-MB-231 breast): 32.9 µM; GI50 (U251 CNS): 17.6 µM; TGI (U251 CNS): 45.2 µM; GI50 (NCI-H460 lung): 16.4 µM; TGI (NCI-H460 lung): 46.7 µM; GI50 (SW-620 colon): 30.4 µM; TGI (SW-620 colon): > 100 µM; GI50 (OVCAR-4 ovarian): 23.3 µM; TGI (OVCAR-4 ovarian): 47.4 µM; GI50 (HCT-116 colon): 5.89 µM; TGI (HCT-116 colon): 22.5 µM; GI50 (NCI-H226 lung): 12.4 µM
